Reference: PMC12846378 (Viruses, 2026)
Several values for one entry are separate records, joined by “and”; a condition that tells them apart may be missing. Equal entries are not always repeated. Where two headings read alike, the source gives them in different places.

Experiments:
LCMV Z = type: cell-based
rLCMV/GFP-P2A-NP [1] = type: cell-based
rLCMV/GFP-P2A-NP [2] = type: cell-based; remark: listed apart in the source
A549 cells [3] = test system: A549 cells
LCMV NP RNA = type: cell-based
A549 cells [4] = test system: A549 cells; remark: listed apart in the source
rLCMV/GFP-P2A-NP [5] = type: cell-based; remark: listed apart in the source
LASV vRNP = type: cell-based
HEK293T cells [6] = test system: HEK293T cells
HEK293T cells [7] = test system: HEK293T cells; remark: listed apart in the source
A549 cells [8] = test system: A549 cells; remark: listed apart in the source
rJUNV/GFP-P2A-NP [9] = assay: organism not typed; type: cell-based
LCMV vRNP = LCMV vRNP (Mammarenavirus choriomeningitidis (LCMV), UniProt P14240); type: cell-based
rJUNV/GFP-P2A-NP [10] = assay: organism not typed; type: cell-based; remark: listed apart in the source
MX1 = type: cell-based
rLCMV/GFP-P2A-NP [11] = assay: organism not typed; type: cell-based
ISG15 = type: cell-based
rLCMV/GFP-P2A-NP [12] = type: cell-based; remark: listed apart in the source
in vitro = settings: African green monkey

CNC1=Nc2ccc(Cl)cc2C(c2ccc[nH]2)=NC1 [RO, Ro-24-7429]
effect on Z budding activity (LCMV Z): did not affect
EC50 (rLCMV/GFP-P2A-NP [1]; read-out: EC50): 889 nM and 890 nM
production of infectious virus (titers in CCS) (rLCMV/GFP-P2A-NP [2]): reduced efficacy at 1 µM compared to 5 µM
reduction in cell viability / cytotoxicity (A549 cells [3]): ≤ 20%
effect on virus RNA replication and transcription (LCMV NP RNA): inhibited to a similar degree both virus replication and transcription
CC50 (A549 cells [4]): > 30000 nM
reduction in infectivity (GFP signal) (rLCMV/GFP-P2A-NP [5]): ≥ 80%
inhibition of LASV MG activity (LASV vRNP): significantly less efficient
CC50 (HEK293T cells [6]): > 20000 nM
CC50 (HEK293T cells [7]): > 1000 nM
CC50 (A549 cells [8]): > 20000 nM
antiviral activity against JUNV (rJUNV/GFP-P2A-NP [9]): less efficient
EC50 (rJUNV/GFP-P2A-NP [9]; read-out: EC50): 15300 nM
inhibition of LCMV MG activity (LCMV vRNP): significantly less efficient
antiviral activity against JUNV (rJUNV/GFP-P2A-NP [10]): less efficient
CC50 (Vero E6 cells): > 30000 nM

O=C(/C=C\n1cnc(-c2cc(C(F)(F)F)cc(C(F)(F)F)c2)n1)NNc1ccccn1 [VE, verdinexor]
effect on Z budding activity (LCMV Z): significant inhibitory effect
EC50 (rLCMV/GFP-P2A-NP [1]): 70 nM
reduction in virus peak titers (rLCMV/GFP-P2A-NP [2]): ~2 log
expression level of MX1 (MX1): reduced expression levels
reduction in cell viability / cytotoxicity (A549 cells [3]; human): ≤ 20%
effect on virus RNA replication and transcription (LCMV NP RNA): inhibited to a similar degree both virus replication and transcription
inhibition at 0.3334 µM (rLCMV/GFP-P2A-NP [11]): 77.6%
inhibition at 1 µM (rLCMV/GFP-P2A-NP [11]): 97.05 ± 0.41%
expression level of ISG15 (ISG15): reduced expression levels
effect on LCMV multiplication in MAVS-KO A549 cells (rLCMV/GFP-P2A-NP [12]): strong dose-dependent inhibitory effect
reduction in infectivity (GFP signal) (rLCMV/GFP-P2A-NP [5]): ≥ 80%
inhibition of LASV MG activity (LASV vRNP): potently inhibited
EC50 (rJUNV/GFP-P2A-NP [9]): 240 nM
antiviral activity against JUNV (rJUNV/GFP-P2A-NP [9]): potent antiviral activity
EC50 (rJUNV/GFP-P2A-NP [9]; Vero C1008): 239 nM
inhibition of LCMV MG activity (LCMV vRNP): potently inhibited
CC50 (in vitro): > 30000 nM
antiviral activity against JUNV (rJUNV/GFP-P2A-NP [10]): potent antiviral activity
EC50 (rJUNV/GFP-P2A-NP [10]; A549): 36 nM

O=C(/C=C\n1cnc(-c2cc(C(F)(F)F)cc(C(F)(F)F)c2)n1)NNc1cnccn1 [SE, Selinexor]
production of infectious virus (titers in CCS) (rLCMV/GFP-P2A-NP [2]): potent inhibitory effect on LCMV multiplication
